Key:
Assay in all cases: biochemical
[1] = target: T1, panel of 374 wild-type kinases (Homo sapiens, UniProt Q99759); settings: read-out: % Enzyme Activity (relative to DMSO controls), MEKK3
T1 construct: purchased Reaction Biology Corporation
T1 sequence (Q99759 1-626): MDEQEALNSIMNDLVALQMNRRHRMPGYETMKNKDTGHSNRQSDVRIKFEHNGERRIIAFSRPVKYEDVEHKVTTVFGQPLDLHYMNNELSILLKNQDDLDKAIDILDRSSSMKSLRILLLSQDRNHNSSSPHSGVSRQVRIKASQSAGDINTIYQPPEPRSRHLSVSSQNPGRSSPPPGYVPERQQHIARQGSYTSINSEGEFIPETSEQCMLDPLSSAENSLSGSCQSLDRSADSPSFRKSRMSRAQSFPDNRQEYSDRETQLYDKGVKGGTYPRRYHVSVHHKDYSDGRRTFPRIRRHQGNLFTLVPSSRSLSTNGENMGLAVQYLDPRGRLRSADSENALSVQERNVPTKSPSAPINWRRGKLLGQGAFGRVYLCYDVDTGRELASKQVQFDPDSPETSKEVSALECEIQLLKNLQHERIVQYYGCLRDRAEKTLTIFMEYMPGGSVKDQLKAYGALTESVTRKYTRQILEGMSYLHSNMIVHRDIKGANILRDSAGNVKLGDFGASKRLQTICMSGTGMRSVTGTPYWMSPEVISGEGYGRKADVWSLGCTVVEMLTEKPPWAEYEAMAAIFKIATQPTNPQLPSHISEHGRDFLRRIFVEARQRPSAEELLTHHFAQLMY

[2] = target: T2, panel of 374 wild-type kinases (Homo sapiens, UniProt Q9Y2U5); settings: read-out: % Enzyme Activity (relative to DMSO controls), MEKK2
T2 construct: purchased Reaction Biology Corporation
T2 sequence (Q9Y2U5 1-619): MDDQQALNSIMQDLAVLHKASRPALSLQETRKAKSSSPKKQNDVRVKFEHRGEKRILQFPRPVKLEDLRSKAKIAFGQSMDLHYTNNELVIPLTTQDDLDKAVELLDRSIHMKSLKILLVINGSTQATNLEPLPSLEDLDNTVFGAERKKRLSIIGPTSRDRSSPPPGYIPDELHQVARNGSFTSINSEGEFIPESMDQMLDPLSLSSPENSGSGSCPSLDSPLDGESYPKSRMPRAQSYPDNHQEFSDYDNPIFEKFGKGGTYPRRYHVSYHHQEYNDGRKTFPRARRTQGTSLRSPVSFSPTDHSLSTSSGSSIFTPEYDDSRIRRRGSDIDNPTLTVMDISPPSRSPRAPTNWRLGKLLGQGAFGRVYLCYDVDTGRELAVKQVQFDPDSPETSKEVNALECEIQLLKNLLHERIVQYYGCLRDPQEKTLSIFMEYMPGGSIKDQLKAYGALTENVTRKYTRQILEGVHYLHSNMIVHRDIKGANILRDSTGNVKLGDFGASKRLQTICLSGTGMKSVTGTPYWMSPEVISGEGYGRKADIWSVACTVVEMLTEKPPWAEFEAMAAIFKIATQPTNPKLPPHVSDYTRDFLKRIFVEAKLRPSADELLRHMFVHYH

[3] = target: T3, panel of 374 wild-type kinases (Homo sapiens, UniProt Q9UL54); settings: read-out: % Enzyme Activity (relative to DMSO controls), kinase TAOK2/TAO1
T3 construct: purchased Reaction Biology Corporation
T3 sequence (Q9UL54 1-1235): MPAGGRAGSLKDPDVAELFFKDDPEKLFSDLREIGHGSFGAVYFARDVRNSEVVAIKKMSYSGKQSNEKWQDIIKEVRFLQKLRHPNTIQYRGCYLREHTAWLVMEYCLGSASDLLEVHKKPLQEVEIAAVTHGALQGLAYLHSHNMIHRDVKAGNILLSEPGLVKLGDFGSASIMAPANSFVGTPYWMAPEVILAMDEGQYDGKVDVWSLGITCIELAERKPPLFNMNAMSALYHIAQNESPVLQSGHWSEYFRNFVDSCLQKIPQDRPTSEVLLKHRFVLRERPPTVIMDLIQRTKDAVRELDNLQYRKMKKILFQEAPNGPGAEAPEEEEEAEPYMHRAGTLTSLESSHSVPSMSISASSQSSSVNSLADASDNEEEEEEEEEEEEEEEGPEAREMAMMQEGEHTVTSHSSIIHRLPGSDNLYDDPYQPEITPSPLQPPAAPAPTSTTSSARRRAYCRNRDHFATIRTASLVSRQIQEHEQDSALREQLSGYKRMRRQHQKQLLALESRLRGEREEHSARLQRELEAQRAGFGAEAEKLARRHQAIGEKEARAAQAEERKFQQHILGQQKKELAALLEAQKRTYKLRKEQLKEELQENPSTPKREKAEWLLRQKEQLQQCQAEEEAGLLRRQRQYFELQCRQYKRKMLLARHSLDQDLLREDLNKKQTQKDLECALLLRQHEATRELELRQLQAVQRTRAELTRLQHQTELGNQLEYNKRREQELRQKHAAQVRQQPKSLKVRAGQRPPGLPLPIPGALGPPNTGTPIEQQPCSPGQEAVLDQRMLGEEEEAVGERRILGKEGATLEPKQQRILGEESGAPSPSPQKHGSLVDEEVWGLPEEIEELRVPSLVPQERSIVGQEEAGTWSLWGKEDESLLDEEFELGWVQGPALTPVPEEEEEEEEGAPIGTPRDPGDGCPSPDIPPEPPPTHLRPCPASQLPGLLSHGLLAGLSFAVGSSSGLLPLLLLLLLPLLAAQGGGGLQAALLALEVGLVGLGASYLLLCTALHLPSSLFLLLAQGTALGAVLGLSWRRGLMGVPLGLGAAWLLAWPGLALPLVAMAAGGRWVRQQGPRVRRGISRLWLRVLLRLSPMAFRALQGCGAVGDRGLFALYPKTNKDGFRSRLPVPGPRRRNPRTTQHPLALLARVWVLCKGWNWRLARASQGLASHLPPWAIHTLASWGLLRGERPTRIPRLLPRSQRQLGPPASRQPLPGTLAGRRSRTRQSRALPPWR

Row | SMILES | remaining activity at 5 µM [1] | remaining activity at 5 µM [2] | remaining activity at 5 µM [3] | remaining activity at 10 µM ([1]; 10 uM) | remaining activity at 10 µM ([2]; 10 uM) | remaining activity at 10 µM ([3]; 10 uM)
1 | O=C(Nc1cnn(-c2csc(C(=O)NC3COC3)c2)c1)Nc1ccccc1Cl [Compound 17, 4-(4-(3-(2-chlorophenyl)ureido)-1H-pyrazol-1-yl)-N-(oxetan-3-yl)thiophene-2-carboxamide] | 113% | 110% | 101% | – | – | –
2 | O=C(Nc1cnn(-c2csc(C(=O)NC3COC3)c2)c1)Nc1c(F)cccc1Cl [Compound 25, 4-(4-(3-(2-chloro-6-fluorophenyl)ureido)-1H-pyrazol-1-yl)-N-(oxetan-3-yl)thiophene-2-carboxamide] | 81.9% | 80.1% | 88.2% | – | – | –
3 | Cc1sc(C(=O)NC2COC2)cc1-n1cc(NC(=O)Nc2c(F)cccc2Cl)cn1 [Compound 27, 4-(4-(3-(2-chloro-6-fluorophenyl)ureido)-1H-pyrazol-1-yl)-5-methyl-N-(oxetan-3-yl)thiophene-2-carboxamide] | – | – | – | 113% | 88.1% | 93.3%
